{"source": "patent US7135336B1", "about": "“Use of Xenopus laevis oocytes a microincubators” (University of South Florida, priority 2004, dated 2006)", "target": "T1, human α4/β2 nicotinic receptors (Homo sapiens, UniProt P17787+P43681)", "T1 construct": "expressed in transfected cells; host or cells: Xenopus laevis oocytes injected with α4/β2 RNA (BMSC-injected and non-injected control oocytes)", "T1 sequence (P43681 29-627 limits assumed)": "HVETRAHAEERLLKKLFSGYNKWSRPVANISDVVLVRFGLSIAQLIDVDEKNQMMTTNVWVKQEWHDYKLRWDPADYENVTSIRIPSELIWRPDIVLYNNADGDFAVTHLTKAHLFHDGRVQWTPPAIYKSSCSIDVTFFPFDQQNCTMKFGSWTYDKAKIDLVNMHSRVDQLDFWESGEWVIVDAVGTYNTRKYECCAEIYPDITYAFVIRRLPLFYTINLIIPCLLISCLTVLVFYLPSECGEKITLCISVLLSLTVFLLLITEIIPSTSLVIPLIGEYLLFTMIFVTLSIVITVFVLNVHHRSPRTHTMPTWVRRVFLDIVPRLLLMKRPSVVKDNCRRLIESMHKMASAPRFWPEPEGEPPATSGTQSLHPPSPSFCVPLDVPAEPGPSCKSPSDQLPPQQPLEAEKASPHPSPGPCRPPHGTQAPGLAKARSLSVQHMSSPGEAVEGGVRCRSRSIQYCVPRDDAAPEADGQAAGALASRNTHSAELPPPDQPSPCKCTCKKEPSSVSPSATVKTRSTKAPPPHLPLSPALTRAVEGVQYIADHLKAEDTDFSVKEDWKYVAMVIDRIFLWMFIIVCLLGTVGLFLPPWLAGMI", "T1 sequence (P17787 26-502)": "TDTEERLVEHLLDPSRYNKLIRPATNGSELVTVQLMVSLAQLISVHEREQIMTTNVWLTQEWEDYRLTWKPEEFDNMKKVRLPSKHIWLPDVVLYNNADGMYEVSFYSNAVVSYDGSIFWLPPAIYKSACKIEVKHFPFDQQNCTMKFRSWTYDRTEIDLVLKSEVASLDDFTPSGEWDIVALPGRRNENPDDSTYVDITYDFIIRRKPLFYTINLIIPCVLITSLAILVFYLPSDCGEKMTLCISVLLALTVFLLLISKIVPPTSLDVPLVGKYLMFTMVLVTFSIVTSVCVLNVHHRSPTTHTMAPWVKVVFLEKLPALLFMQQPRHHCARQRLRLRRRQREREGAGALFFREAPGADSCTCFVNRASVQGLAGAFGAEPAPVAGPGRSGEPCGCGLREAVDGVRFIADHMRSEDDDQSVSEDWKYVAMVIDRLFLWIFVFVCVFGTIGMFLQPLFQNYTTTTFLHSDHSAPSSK", "assay": "Two electrode voltage clamp recordings of acetylcholine chloride concentration response in Xenopus laevis oocytes expressing human α4/β2 nicotinic receptors", "assay_type": "cell-based", "procedure": "Electrophysiological Recordings. The last set of experiments was designed to investigate survival and lifespan differences between frog oocytes injected with BMSC and non-injected oocytes. Both groups were carefully maintained under the same conditions for a prolonged period of time. […] Whole cell currents were measured at room temperature, 48 hours after RNA injection.\nFinally, the last set of experiments was devoted to the study of the longevity of recipient oocytes with control test for their functional activity in the form of ability of oocytes to express α4/β2 subunits of human nicotinic receptors in their membranes 48h after RNA injection.", "key": {"[1]": {"conditions": "BMSC injected 44 day old oocytes"}}}
{"molecule": "CC(=O)OCC[N+](C)(C)C.[Cl-]", "note": "[Ach, acetylcholine chloride]", "values": [{"measurement": "nH1 (high-affinity Hill coefficient)", "setting": "[1]", "value": 0.51}, {"measurement": "nH2 (low-affinity Hill coefficient)", "setting": "[1]", "value": 3.0}, {"measurement": "times lower concentration of agonist for 50% of Ach evoked peak current amplitude, BMSC injected vs control oocytes", "setting": "high-affinity sites", "value": 2.7, "unit": "times"}, {"measurement": "times lower concentration of Ach for 50% of peak current, BMSC injected vs control oocytes", "setting": "low affinity sites", "value": 3.8, "unit": "times"}, {"measurement": "nH1 (high-affinity Hill coefficient)", "setting": "non-injected control oocytes", "value": 0.68}, {"measurement": "nH2 (low-affinity Hill coefficient)", "setting": "non-injected control oocytes", "value": 2.6}]}
